Results on 16 compounds are retold here after patent US20060035932A1, “N-aryl piperidine compounds” (Propharmacon, Inc., priority 2004, published 2006).

One experiment has as its target T1, binding of recombinant macrophage-tropic strain JR-FL gp120 to immobilized recombinant CD4 (Homo sapiens, UniProt P01730).
T1 construct: human CD4 (comprised of amino acids 1-371); made in house; host or cells: Sf9 insect cells, baculovirus vector pAcGP67
Put plainly: gp120/CD4 binding assay (DELFIA competition assay, europium-labeled gp120, immobilized CD4). Set-up: species or system HIV (strain JR-FL) gp120; human CD4. To be noted: control substances used in optimizing the binding assay. The text has this: Coding sequences for gp120 (macrophage-tropic strain JR-FL) and human CD4 (comprised of amino acids 1-371) were sub-cloned into the commercial baculovirus expression vector pAcGP67 (Pharmingen, San Diego, Calif.). The recombinant vectors were then transfected into Sf9 insect cell monolayers using the Baculogold™ transfection system. Clones were isolated by the method of limited dilution.
For large-scale production, cell culture was scaled up in 8-liter spinner flasks of Sf9 cells adapted to serum-free growth conditions, then infected by baculovirus using an MOI of 5 and the cell supernatant was harvested 72 hours later. The yields of recombinant protein expressed for both proteins were similar; 2-5 μg/ml (micrograms per milliliter). Recombinant CD4 protein was immunopurified using an affinity-column of immobilized Anti-CD4 D1 mAb Leu3a (Dalgleish, A. G., et al., Lancet, 2:1047-1050 1987) and gp120 protein was immunopurified using a resin coupled with Propharmacon monoclonal antibody PPC3G6 produced in-house (mouse IgG2) against Sf9-produced gp120. Protein purity and molecular weight were assessed using reduced and non-reduced SDS PAGE.
The identification of inhibitors was carried out by a competition assay utilizing recombinant macrophage-tropic strain JR-FL gp120, which competes with a prospective inhibitor to bind to immobilized recombinant CD4. The amount of gp12O binding to CD4 was quantitated by DELFIA “Dissociation Enhanced Lanthanide Fluoroimmunoassay” (Paterson, N., et al., Ann. Clin Biochem., 22, 606-611, 1985), having previously labeled the gp120 with a commercial europium chelate (Wallac Oy, Turku, Finland). The final readout uses time-resolved fluorescence to quantitate the amount of dissociated europium metal present. Binding of labeled gp120 was saturable and yielded an IC50 of 3 nM, which approximates literature values (Lasky, L. A., et al., Cell, 50, 975-985). In addition, the binding of gp120 was inhibited by Leu3a with an IC50 of 2 μg/ml. […] The assay is optionally adapted to 384-well format for screening purposes.
For `CC(C)CCC[C@@H](C)[C@H]1CC[C@H]2[C@@H]3CC[C@H]4C[C@@H](CCC=C(c5cc(Cl)c(O)c(C(=O)O)c5)c5cc(Cl)c(O)c(C(=O)O)c5)CC[C@]4(C)[C@H]3CC[C@]12C` [cosalane, reference compound], the “IC50, inhibition of binding of gp120 to immobilized CD4” value was 4.3 µg/mL.

The same experiment, now with this note: control substances used in optimizing the binding assay; read-out: IC50, inhibition of binding of gp120 to immobilized CD4 (converted).
Consider `O=C(O)C1=CC(=C(c2ccc(O)c(C(=O)O)c2)c2ccc(O)c(C(=O)O)c2)C=CC1=O` [aurintricarboxylic acid, reference compound], for which the IC50 is 1180 nM.

Staying with this experiment, now noted: gp120/CD4 binding assay; read-out: Activity (IC50 level in the gp120/CD4 binding assay).
Take `O=C(O)[C@H](Cc1ccccc1)NS(=O)(=O)c1cnc(N2CCC(CCCCCC3CCN(S(=O)(=O)c4cc(Br)c(Cl)s4)CC3)CC2)c(Br)c1`: the IC50 is < 1000 nM.

Turning to `O=C(O)CN(CCc1ccc(F)cc1)S(=O)(=O)c1cnc(N2CCC(CCCC3CCN(S(=O)(=O)c4cc(Br)c(Cl)s4)CC3)CC2)c(Br)c1`, the IC50 is < 1000 nM.

As for `O=C(NCCCCC(NS(=O)(=O)c1cnc(N2CCC(CCCC3CCN(S(=O)(=O)c4cc(Br)c(Cl)s4)CC3)CC2)c(Br)c1)C(=O)O)OCc1ccccc1Cl` (stereo not shown), the IC50 was < 1000 nM.

As for `O=C(O)[C@H](Cc1ccccc1)NS(=O)(=O)c1cnc(N2CCC(CCCCCCCC3CCN(S(=O)(=O)c4cc(Br)c(Cl)s4)CC3)CC2)c(Br)c1`, the IC50 is < 1000 nM.

Regarding `O=C(O)CC1Cc2ccccc2CN1S(=O)(=O)c1cnc(N2CCC(CCCCC3CCN(S(=O)(=O)c4cc(Br)c(Cl)s4)CC3)CC2)c(Br)c1` (stereo not shown), the IC50 is < 1000 nM.

Regarding `O=C(O)C1(NS(=O)(=O)c2cnc(N3CCC(CCCC4CCN(S(=O)(=O)c5cc(Br)c(Cl)s5)CC4)CC3)c(Br)c2)CCCCC1`, the IC50 is < 1000 nM.

For `O=C(O)[C@H](Cc1ccccc1)NS(=O)(=O)c1cnc(N2CCC(CCCCC3CCN(S(=O)(=O)c4cc(Br)c(Cl)s4)CC3)CC2)c(C(F)(F)F)c1`, the IC50 lay within 1000 to 10000 nM.

Consider `O=C(O)C[C@@H]1CCCN1S(=O)(=O)c1cnc(N2CCC(CCCC3CCN(S(=O)(=O)c4cc(Br)c(Cl)s4)CC3)CC2)c(Br)c1`, for which the IC50 lay in the range of 1000 to 10000 nM.

Turning to `O=C(O)[C@H](Cc1ccc(Cl)cc1)NS(=O)(=O)c1cnc(N2CCC(CCCCCC3CCN(S(=O)(=O)c4cc(Br)c(Cl)s4)CC3)CC2)c(Br)c1`, the IC50 lay within 1000 to 10000 nM.

Regarding `O=C(O)[C@H](Cc1ccccc1)NS(=O)(=O)c1ccc(N2CCC(CCCC3CCN(S(=O)(=O)c4cc(Br)c(Cl)s4)CC3)CC2)c(Cl)c1`, the IC50 fell in the range of 1000 to 10000 nM.

As to `CSCC[C@H](NS(=O)(=O)c1ccc(N2CCC(CCCC3CCN(S(=O)(=O)c4ccc(C(C)(C)C)cc4)CC3)CC2)c(Cl)c1)C(=O)O`, the IC50 was 1000 to 10000 nM.

Consider `O=C(O)[C@@H]1CC[C@H](NS(=O)(=O)c2ccc(N3CCC(CCCC4CCN(S(=O)(=O)c5ccc(F)cc5)CC4)CC3)c(Cl)c2)C1`, for which the IC50 was > 10000 nM.

Turning to `O=C(NO)[C@H]1CC[C@H](NS(=O)(=O)c2ccc(N3CCC(CCCC4CCN(S(=O)(=O)c5cc(Br)c(Cl)s5)CC4)CC3)c(Cl)c2)C1`, the IC50 is > 10000 nM.

For the compound `O=S(=O)(c1cnc(N2CCC(CCCC3CCN(S(=O)(=O)c4c(Cl)ccc5nonc45)CC3)CC2)c(Br)c1)N1CCCNCC1`, the IC50 is > 10000 nM.
